The values below come from the OPERA property sets (Mansouri et al. 2018).

Compound `CCCCCCCCCCCc1cccc(O)c1O` showed a logP of 6.3.

`CCCCCCCCCCCCCc1ccc(O)cc1O` had a logP of 6.84.

In turn, `CCCCCCCCCCCc1cccc(O)c1` showed a logP of 6.98. `CCCCCCCCCCCCCCCc1ccc(O)cc1O` had a log partition coefficient (logP) of 8.29. Turning to `CCCCCCCCCc1ccc(O)cc1`, the logP was determined as 5.76. Then `CCCCCCCCCCCCCc1ccccc1O`, with 8.61. As for `CCCCCCCCCCCc1ccc(O)cc1`, the logP is 7.18. In the case of `CCCCCCCCCCCCc1ccc(O)cc1`, the logP was determined as 7.91. With `CCCCCc1ccc(O)c(O)c1`, the log partition coefficient (logP) turned out to be 3.11. As for `CCCCCCCCCc1cccc(O)c1`, the lipophilicity (logP) is 5.61. For `CCCCCCCCCCCCCc1cccc(O)c1O`, the logP was found to be 7.75. With `CCCCCCCCCc1ccccc1O`, the logP came out at 5.76. Regarding `CCCCCCCCCCCc1ccccc1O`, the logP is 7.17. As for `CCCCCCCCCCCc1ccc(O)c(O)c1`, the figure is 6.97.
